Measured values: ChEMBL document CHEMBL1201862, “PubChem BioAssay data set” (2004)
Counter-ions that a name gives are not always drawn. The source made the active and inactive calls.

Key:
[1] = target: Voltage-gated inwardly rectifying potassium channel KCNH2 (Homo sapiens, UniProt Q12809); settings: Potency;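 note: confirmatory quantitative high-throughput screen measuring inhibition of hERG channel activity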
[2] = target: 26S proteasome non-ATPase regulatory subunit 14 (Homo sapiens, UniProt O00487); assay: inhibition of proteasome subunit RPN11 – biochemical, fluorescence polarization, uHTS hits, confirmation (AID 602368); type: functional
26S proteasome non-ATPase regulatory subunit 14, sequence (O00487 whole entry): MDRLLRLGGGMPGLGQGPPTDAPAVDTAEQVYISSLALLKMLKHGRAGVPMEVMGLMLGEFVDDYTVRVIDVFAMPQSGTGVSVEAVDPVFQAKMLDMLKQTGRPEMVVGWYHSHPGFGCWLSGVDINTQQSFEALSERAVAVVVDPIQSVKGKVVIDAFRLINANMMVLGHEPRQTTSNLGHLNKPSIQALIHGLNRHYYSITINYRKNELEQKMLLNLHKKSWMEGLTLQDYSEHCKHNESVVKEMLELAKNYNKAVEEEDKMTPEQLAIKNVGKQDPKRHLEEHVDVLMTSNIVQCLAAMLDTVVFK

[3] = target: T1, Rac GTPase-activating protein 1 (Homo sapiens, UniProt Q9H0H5); assay: blockers of MgcRacGAP-driven Rac1 GTP hydrolysis – biochemical, ADP Hunter fluorescence, primary and confirmatory, confirmation (AID 624330); type: functional
T1 sequence (Q9H0H5 whole entry): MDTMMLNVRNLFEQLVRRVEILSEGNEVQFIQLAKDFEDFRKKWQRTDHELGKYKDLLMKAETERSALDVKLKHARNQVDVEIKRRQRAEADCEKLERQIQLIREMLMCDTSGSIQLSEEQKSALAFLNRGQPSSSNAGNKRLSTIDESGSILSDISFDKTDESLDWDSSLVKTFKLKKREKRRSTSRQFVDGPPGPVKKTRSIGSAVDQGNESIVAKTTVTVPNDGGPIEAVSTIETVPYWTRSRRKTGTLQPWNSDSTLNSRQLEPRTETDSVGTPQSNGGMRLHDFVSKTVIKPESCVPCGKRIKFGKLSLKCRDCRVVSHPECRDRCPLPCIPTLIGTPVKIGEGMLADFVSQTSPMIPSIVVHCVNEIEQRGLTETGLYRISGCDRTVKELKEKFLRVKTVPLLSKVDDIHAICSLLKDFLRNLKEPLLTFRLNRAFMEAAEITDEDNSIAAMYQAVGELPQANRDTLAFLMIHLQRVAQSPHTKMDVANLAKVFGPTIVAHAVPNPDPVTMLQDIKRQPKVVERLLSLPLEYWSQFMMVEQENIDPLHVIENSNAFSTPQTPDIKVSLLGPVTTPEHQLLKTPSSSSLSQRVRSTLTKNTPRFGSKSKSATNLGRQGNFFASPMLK

[4] = target: 72 kDa type IV collagenase (Homo sapiens, UniProt P08253); assay: Dose Response validation of uHTS RPN11 inhibitor hits using a MMP-2 Fluorescence assay.; type: functional
72 kDa type IV collagenase, sequence (P08253 whole entry): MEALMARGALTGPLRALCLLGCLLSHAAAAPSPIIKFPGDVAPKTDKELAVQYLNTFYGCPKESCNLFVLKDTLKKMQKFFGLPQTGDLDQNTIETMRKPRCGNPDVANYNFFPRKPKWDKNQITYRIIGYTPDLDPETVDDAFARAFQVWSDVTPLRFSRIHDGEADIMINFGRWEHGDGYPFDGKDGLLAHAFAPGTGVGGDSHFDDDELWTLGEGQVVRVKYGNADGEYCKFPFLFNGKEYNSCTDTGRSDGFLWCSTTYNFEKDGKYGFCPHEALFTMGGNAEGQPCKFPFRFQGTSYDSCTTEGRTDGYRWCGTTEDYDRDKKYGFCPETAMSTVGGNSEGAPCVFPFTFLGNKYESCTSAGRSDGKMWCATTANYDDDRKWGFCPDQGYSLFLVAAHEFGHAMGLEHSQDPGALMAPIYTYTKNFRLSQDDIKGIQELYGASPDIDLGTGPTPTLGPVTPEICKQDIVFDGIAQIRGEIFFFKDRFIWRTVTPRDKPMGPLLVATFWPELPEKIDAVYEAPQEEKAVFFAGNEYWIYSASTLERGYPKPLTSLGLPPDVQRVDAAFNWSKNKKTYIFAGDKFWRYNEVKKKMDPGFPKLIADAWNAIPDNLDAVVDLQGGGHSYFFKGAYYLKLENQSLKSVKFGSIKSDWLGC

Prothrombin = Prothrombin (Bos taurus, UniProt P00735); assay: thrombin protease inhibitors – biochemical, fluorescence polarization, uHTS hits, dose response (AID 602369); type: functional
[5] = target: T2, Carboxy-terminal domain RNA polymerase II polypeptide A small phosphatase 1 (Homo sapiens, UniProt Q9GZU7); assay: CTDSP1 inhibitors, concentration-response, biochemical, absorbance readout, ultra-high-throughput screen actives (AID 540297); type: functional
T2 sequence (Q9GZU7 whole entry): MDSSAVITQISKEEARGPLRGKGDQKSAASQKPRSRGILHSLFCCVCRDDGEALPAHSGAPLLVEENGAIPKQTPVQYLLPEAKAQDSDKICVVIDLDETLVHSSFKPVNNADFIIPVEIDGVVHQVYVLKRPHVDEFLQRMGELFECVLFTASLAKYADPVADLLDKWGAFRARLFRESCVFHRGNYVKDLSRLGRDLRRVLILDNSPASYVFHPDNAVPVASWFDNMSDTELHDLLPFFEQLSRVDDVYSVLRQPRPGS

[6] = target: T3, Nuclear receptor subfamily 0 group B member 1 (Homo sapiens, UniProt P51843); assay: Luminescence-based cell-based high throughput dose response assay for inhibitors of the orphan nuclear receptor subfamily 0, group B, member 1 (DAX1; NR0B1). [Related pubchem assays (depositor defined):AID504766, AID504790]; type: functional
T3 sequence (P51843 whole entry): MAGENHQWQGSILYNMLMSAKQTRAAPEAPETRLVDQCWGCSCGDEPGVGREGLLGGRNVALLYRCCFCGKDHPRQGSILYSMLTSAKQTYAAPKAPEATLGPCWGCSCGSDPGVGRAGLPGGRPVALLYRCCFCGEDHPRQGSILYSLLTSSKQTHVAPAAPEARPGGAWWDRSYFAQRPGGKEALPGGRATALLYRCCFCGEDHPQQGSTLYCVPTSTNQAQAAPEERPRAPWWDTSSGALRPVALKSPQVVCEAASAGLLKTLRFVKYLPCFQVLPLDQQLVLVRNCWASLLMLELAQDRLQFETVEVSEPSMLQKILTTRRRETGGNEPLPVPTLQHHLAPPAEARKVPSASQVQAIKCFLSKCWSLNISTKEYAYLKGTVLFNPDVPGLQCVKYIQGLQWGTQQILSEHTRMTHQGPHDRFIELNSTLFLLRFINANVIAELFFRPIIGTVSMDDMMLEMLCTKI

HEK293 = assay: cells; type: functional, cell-based; settings: Homo sapiens
[7] = target: T4, Corticotropin-releasing factor receptor 2/Corticotropin-releasing factor-binding protein (Homo sapiens, UniProt P24387+Q13324); assay: activators of CRF receptor 2 with binding protein – uHTS hits, confirmation (AID 602473); type: functional; settings: read-out: EC50_Mean
T4 sequence (Q13324 whole entry): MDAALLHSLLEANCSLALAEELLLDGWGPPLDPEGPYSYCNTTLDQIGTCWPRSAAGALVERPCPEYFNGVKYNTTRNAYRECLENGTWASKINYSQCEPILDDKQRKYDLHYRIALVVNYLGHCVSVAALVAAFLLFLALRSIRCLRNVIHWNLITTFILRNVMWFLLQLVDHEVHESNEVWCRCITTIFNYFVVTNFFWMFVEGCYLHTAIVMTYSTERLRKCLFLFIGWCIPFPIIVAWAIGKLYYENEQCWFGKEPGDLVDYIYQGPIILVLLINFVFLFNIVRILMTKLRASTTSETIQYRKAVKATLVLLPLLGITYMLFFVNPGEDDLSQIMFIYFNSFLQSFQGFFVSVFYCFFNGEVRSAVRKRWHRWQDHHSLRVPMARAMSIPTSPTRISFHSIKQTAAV
T4 sequence (P24387 whole entry): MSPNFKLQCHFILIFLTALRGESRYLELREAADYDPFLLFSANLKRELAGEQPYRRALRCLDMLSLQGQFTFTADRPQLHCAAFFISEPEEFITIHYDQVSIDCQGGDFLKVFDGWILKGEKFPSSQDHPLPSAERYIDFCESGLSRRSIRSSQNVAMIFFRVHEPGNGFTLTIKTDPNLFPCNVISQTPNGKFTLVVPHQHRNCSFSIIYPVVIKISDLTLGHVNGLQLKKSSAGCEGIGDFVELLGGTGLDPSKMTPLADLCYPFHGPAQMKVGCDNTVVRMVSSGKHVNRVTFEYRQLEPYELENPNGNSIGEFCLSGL

[8] = target: T4, Corticotropin-releasing factor receptor 2/Corticotropin-releasing factor-binding protein; assay: Dose Response confirmation of uHTS hits for small molecule antagonists of the CRF-binding protein and CRF-R2 receptor complex.; type: functional; settings: read-out: IC50_Mean
Protein Wnt-3a = Protein Wnt-3a (Mus musculus, UniProt P27467); assay: antagonism of Wnt3a pathway luciferase reporter – Wnt-LIGHT cells, luminescence, selectivity assay for Gli-SUFU antagonist project, dose response (AID 651570); type: functional; settings: read-out: IC50_Mean;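 note: Wnt-LIGHT reporter cells stimulated with conditioned medium from Wnt3a-producing cells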
Protein Wnt-3a, sequence (P27467 whole entry): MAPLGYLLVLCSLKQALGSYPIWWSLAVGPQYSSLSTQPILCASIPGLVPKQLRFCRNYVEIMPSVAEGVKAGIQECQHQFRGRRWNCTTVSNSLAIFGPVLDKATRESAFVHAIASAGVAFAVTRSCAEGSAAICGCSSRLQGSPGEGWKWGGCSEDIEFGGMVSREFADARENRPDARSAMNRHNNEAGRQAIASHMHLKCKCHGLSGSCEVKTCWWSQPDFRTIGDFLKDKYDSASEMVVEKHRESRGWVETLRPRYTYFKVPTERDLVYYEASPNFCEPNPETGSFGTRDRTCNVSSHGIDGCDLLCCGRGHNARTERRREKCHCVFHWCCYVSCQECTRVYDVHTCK

Vero [9] = assay: cells; type: functional, cell-based; settings: Chlorocebus sabaeus
[10] = microbe, parasite or virus in culture; type: functional; settings: Mycobacterium tuberculosis
cells = type: functional
[11] = THP-1 cell cytotoxicity, dose response, cytotoxicity control for non-replicating M. tuberculosis project (AID 489025); type: functional
[12] = Vero E6 cell cytotoxicity, dose response, cytotoxicity control for non-replicating M. tuberculosis project, secondary assay (AID 492998); type: functional, VeroE6; settings: Vero C1008
Streptococcus = assay: GAS UMAA2166 growth inhibition – luminescence, BacTiterGlo, counter-screen for streptokinase expression inhibitor project, dose response (AID 1915); type: functional, organism-based;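 note: potency for reduction of bacterial viability or growth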
Vero [13] = assay: cells; type: functional; settings: Chlorocebus sabaeus
[14] = system: Streptococcus sp. 'group A'; assay: Streptococcus pyogenes SK(-)GAS viability under kanamycin – luminescence, BacTiterGlo, confirmation, counter-screen for streptokinase expression inhibitor project, dose response (AID 1900); type: functional, organism-based
CAAX prenyl protease 2 = target: T5, CAAX prenyl protease 2 (Homo sapiens, UniProt Q9Y256); assay: inhibition of Ras-converting CAAX protease Rce1 – biochemical, yeast membranes, quenched-peptide fluorescence, cherry-pick, dose response (AID 588849)
T5 sequence (Q9Y256 whole entry): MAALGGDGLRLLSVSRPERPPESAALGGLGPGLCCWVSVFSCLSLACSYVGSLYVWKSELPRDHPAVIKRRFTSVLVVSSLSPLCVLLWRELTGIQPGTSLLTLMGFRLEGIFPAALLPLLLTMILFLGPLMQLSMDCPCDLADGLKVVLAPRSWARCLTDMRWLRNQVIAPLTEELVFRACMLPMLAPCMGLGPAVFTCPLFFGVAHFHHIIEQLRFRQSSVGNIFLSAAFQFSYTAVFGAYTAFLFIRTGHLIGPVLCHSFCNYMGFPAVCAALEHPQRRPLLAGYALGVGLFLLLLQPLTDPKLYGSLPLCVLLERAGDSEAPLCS

CAAX prenyl protease 1 = target: T6, CAAX prenyl protease 1 (Saccharomyces cerevisiae S288c, UniProt P47154); assay: yeast CAAX protease Ste24 inhibition – biochemical, S. cerevisiae, plate reader, cherry-pick, dose response (AID 488815)
T6 sequence (P47154 whole entry): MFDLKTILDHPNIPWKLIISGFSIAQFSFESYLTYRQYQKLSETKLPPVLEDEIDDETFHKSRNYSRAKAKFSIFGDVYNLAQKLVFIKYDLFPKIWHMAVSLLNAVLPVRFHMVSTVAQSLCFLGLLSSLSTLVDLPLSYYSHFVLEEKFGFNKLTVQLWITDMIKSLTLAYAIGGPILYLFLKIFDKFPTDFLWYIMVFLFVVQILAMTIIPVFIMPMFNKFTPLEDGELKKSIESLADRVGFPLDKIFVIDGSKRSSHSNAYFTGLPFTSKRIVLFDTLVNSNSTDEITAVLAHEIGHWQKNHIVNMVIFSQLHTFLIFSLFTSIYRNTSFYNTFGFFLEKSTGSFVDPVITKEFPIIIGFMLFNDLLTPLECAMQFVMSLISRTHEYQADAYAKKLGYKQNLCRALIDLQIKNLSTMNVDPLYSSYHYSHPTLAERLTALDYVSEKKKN

[15] = A Cell Based Secondary Assay To Explore Cytotoxicity of Compounds that Sensitize Mycobacterium Tuberculosis to Beta-Lactam Antibiotics.; type: functional
[16] = target: T7, Mitochondrial peptide methionine sulfoxide reductase (Bos taurus, UniProt P54149); type: functional;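 note: absorbance read-out, biochemical high-throughput dose-response screen for MsrA inhibitors, confirmatory; recombinant bovine MsrA coupled to E. coli TrxB with NADPH and selenocystamine; potency is for inhibitors of MsrA activity on DMSO substrate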
T7 sequence (P54149 whole entry): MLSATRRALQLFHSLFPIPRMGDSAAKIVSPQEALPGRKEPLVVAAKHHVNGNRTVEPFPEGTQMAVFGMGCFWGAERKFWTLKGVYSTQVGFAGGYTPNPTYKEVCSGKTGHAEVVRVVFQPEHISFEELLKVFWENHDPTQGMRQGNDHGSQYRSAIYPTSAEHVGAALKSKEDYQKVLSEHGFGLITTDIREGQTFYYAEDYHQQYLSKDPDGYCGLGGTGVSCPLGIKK

Voltage-gated inwardly rectifying potassium channel KCNH2, sequence (Q12809 whole entry): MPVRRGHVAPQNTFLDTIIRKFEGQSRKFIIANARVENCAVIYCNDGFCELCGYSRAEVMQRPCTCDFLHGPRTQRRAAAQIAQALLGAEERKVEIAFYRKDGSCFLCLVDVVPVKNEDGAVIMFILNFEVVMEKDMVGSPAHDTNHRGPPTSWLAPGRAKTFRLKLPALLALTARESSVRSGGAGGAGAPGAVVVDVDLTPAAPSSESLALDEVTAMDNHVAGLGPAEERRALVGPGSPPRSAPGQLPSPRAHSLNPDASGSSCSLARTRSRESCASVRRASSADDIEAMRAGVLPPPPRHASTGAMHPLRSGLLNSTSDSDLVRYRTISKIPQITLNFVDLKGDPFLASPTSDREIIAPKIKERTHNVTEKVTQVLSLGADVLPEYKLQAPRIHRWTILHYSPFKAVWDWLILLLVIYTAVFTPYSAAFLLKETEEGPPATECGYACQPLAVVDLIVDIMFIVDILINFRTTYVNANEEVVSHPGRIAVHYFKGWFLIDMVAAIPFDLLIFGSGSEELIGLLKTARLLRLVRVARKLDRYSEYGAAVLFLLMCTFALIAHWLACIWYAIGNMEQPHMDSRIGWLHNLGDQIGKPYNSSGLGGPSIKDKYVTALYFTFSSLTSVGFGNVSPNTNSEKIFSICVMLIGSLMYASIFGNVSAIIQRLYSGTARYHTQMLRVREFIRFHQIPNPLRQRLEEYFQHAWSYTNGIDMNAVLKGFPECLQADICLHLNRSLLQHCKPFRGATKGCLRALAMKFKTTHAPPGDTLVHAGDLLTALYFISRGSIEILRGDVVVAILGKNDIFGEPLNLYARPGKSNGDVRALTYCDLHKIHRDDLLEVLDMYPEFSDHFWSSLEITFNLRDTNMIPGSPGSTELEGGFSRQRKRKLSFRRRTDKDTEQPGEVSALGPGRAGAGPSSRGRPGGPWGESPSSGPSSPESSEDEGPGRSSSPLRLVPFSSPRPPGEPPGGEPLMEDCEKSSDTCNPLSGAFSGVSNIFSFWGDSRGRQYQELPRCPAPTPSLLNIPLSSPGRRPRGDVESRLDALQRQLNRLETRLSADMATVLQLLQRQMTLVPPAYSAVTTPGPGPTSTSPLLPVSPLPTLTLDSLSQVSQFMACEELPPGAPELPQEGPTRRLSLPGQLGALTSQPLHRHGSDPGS

## CC(C)(CO)Cc1cc(C(C)(C)C)c(O)c(C(C)(C)C)c1
[1]
  AC50: 35.5 µM (inconclusive)

## CN1C(=O)/C(=C/C=C2/CCCN2C)N(C)C1=S
[2]
  IC50: 8.15 µM (active)
[3]
  IC50: 24.2 µM (active)
[4]
  IC50: > 100 µM (inactive)
Prothrombin
  IC50: 29 µM (active)

## O=C(Nc1nc2ccsc2c(=O)s1)c1ccc(F)cc1Cl
[5]
  IC50: 31.7 µM (active)
[6]
  IC50: > 67.5 µM (inactive)
HEK293
  IC50: > 67.5 µM (inactive)

## O=C(O)CC(NNC(=O)c1ccccc1)C(=O)Nc1ccc([N+](=O)[O-])cc1 (stereo unspecified)
[6]
  IC50: > 67.5 µM (inactive)
HEK293
  IC50: > 67.5 µM (inactive)

## CC1(C)CC(NCCC(c2ccccc2)c2ccco2)CCO1 (stereo unspecified)
[7]
  EC50: > 53 µM (inactive)
[6]
  IC50: > 67.5 µM (inactive)
[8]
  IC50: > 47.1 µM (inactive)
HEK293
  IC50: > 67.5 µM (inactive)

## FC(F)Oc1ccc(-[n+]2cc(-c3ccccc3)n3c2CCCCC3)cc1
Protein Wnt-3a
  IC50: 12.5 µM (active)

## CC(Oc1ccc2ccccc2c1)C(=O)NNC(=S)NC(=O)c1ccco1 (stereo unspecified)
Vero [9]
  IC50: 24.6 µM (active)
[10]
  CC50: 39.5 µM (active)
cells
  IC50: 6.03 µM (active)
[11]
  CC50: 27.3 µM (active)
[12]
  CC50: > 20 µM (active)
Streptococcus
  EC50: 0.432 µM (active)
Vero [13]
  CC50: > 25 µM (active)
[14]
  EC50: 0.074 µM (active)

## COCCNc1nc2c(c(=O)n(C)c(=O)n2C)n1Cc1cccc(C)c1
Protein Wnt-3a
  IC50: 1.95 µM (active)

## Cc1ccc(C)c(N2CCN(c3ncnc4c3cnn4-c3ccccc3)CC2)c1
Vero [9]
  IC50: > 25 µM (active)
Vero [13]
  CC50: > 25 µM (active)

## O=C(COc1ccc(Cl)cc1Cl)OCC(=O)N1CCCc2ccccc21
[6]
  IC50: > 67.5 µM (inactive)
HEK293
  IC50: > 67.5 µM (inactive)

## COc1ccc(Cn2c(N)c(S(=O)(=O)c3cccs3)c3nc4ccccc4nc32)cc1
CAAX prenyl protease 2
  AC50: 4.33 µM (active)
CAAX prenyl protease 1
  AC50: 2.79 µM (active)

## CCNc1nc(CN2CCCCC2)nc2scc(-c3ccccc3)c12
Protein Wnt-3a
  IC50: 5.03 µM (active)
[15]
  CC50: > 40 µM (active)

## COc1ccccc1NC(=O)CSc1ccc(-c2ccc(-n3cccn3)cc2)nn1
[2]
  IC50: 15.7 µM (active)
[4]
  IC50: > 100 µM (inactive)
Prothrombin
  IC50: > 100 µM (inactive)

## O=[N+]([O-])c1ccc(N/N=C\c2cccn2-c2ccccc2)nc1
[2]
  IC50: 23.5 µM (active)
[4]
  IC50: > 100 µM (inactive)
Prothrombin
  IC50: 29.5 µM (active)

## C/C(=N\Nc1ccc([N+](=O)[O-])cc1[N+](=O)[O-])c1cccnc1
[16]
  IC50: 155 µM (inactive)

## COC(=O)[C@H](NC(=O)c1cc(-c2ccccc2)nc2ccccc12)c1ccccc1
[1]
  AC50: 0.794 µM (inconclusive)

## COc1cc2c(cc1OC)-c1c/c(=N\c3c(C)cc(C)cc3C)n(C)c(=O)n1CC2 [TREQUINSIN HYDROCHLORIDE]
[1]
  AC50: 35.5 µM (inconclusive)
